Assay results from patent publication US20240409543A1, “PYRROLOPYRAZOLE SPIRO COMPOUND” (CHIA TAI TIANQING PHARMACEUTICAL GROUP CO., LTD., priority 2021, published 2024).

How the values were obtained:
[1] = tested on: H358 cells (NCIH358_LUNG); assay: Anti-proliferation experiment on tumor cells with KRAS mutations, H358 (3D CellTiter-Glo); format: cell-based; details: Homo sapiens, NCI-H358, 120 h, 5 days incubation with compound, ultra-low attachment plate
Source text: Cell culture medium, penicillin/streptomycin antibiotics purchased from Wisent, and fetal bovine serum purchased from Biosera; 3D CellTiter-Glo (chemiluminescence detection reagent for cell viability) reagent purchased from Promega; Cell lines purchased from Nanjing Cobioer Biosciences Co., Ltd. and Wuhan Procell Life Science & Technology Co., Ltd; and Envision multimode microplate reader (PerkinElmer).
Different types of tumor cells were each seeded in an ultra-low attachment 96-well U-bottom plate, with 80 μL of cell suspension per well. The cell plate was incubated in a CO2 incubator overnight.
Each test compound was diluted in a 5-fold gradient to the 9th concentration (i.e., from 2 mM to 5.12 nM or from 200 μM to 0.512 nM) using a multi-channel pipette, with duplicate wells set up. 78 μL of medium was added to an intermediate plate, and the serially diluted compound was transferred to the corresponding wells of the intermediate plate at 2 μL/well. The mixture was mixed well and then transferred to the cell plate at 20 µL/well. The concentration of the compound transferred to the cell plate ranged from 10 μM to 0.0256 nM or from 1 μM to 0.00256 nM. The cell plate was then incubated in a CO2 incubator for 3-6 days.
The chemiluminescence detection reagent for cell viability was added to the cell plate at 100 μL/well, and the luminescence signals were stabilized by incubation for 10 min at room temperature. Readings were taken using the multimode microplate reader.
The original data were converted to inhibition rates and then the IC50 values were obtained by curve fitting using a four-parameter method (obtained from the “log(inhibitor) vs. response—Variable slope” model in GraphPad Prism). Table 2 illustrates the inhibitory activity of the compounds disclosed herein against the proliferation of different types of tumor cells.

[2] = In-vivo pharmacokinetic study in mice; set-up: species or system male CD-1 mice; details: male, CD-1, mouse, plasma
Protocol: This experiment was intended to evaluate the pharmacokinetic behavior of each compound after a single intravenous injection and intragastric administration and to investigate the bioavailability after intragastric administration.
Male CD-1 mice aged 7 to 10 weeks were selected. The mice were fasted for at least 12 h before administration and were allowed to feed again 4 h after administration, with free access to water throughout the experiment.
On the day of the experiment, animals in the intravenous group were given the corresponding compound by a single injection via the tail vein at an administration volume of 5 mL/kg; animals in the oral group were given the corresponding compound by a single intragastric administration at an administration volume of 10 mL/kg. The animals were weighed before administration, and the administration volume was calculated based on their body weight. Sample collection time points: For the injection group, samples were collected at 0.083 h, 0.25 h, 0.5 h, 1 h, 2 h, 4 h, 8 h, and 24 h; for the intragastric group, samples were collected at 0.25 h, 0.5 h, 1 h, 2 h, 4 h, 6 h, 8 h, and 24 h. At each time point, approximately 30 μL of whole blood was collected via the saphenous vein, which was then used to prepare plasma for concentration determination by high performance liquid chromatography-tandem mass spectrometry (LC-MS/MS). All animals were euthanized with […] after the PK samples were taken at the last time point. The plasma concentrations were processed using a non-compartmental model of the pharmacokinetic software WmnNonlin™ Version 6.3 (Pharsight, Mountain View, CA), and the pharmacokinetic parameters were calculated using a linear log-trapezoidal method.

[3] = tested on: ERK phosphorylation in H358 cells; assay: Inhibitory activity against ERK phosphorylation in H358 cells (HTRF Phospho-ERK1/2 kit); format: cell-based; details: Homo sapiens, NCI-H358; starved H358 cells, 1 h compound incubation; read-out: H358 cell ERK phosphorylation IC50
Protocol: H358 cells purchased from Nanjing Cobioer Biosciences Co., Ltd., 1640 medium purchased from Biological industries, fetal bovine serum purchased from Biosera, and Advanced Phospho-ERK1/2 (THR202/TYR204) KIT purchased from Cisbio.
• 1. H358 cells were plated in a transparent 96-well cell culture plate, with 80 μL of cell suspension per well, each well containing 10000 H358 cells. The cell plate was incubated in a CO2 incubator at 37° C. overnight. • 2. The cell supernatant was discarded, and a starvation medium (1640+0.02% fetal bovine serum+1% […]) was added at 80 μL/well. The cell plate was then incubated in a CO2 incubator for cell starvation treatment overnight; • 3. Each test compound was diluted with 100% DMSO to 4 mM as the first concentration, and then diluted in a 5-fold gradient to the 8th concentration (i.e., from 4 mM to […]) using a pipette. 1 μL of the compound was then added to 79 μL of cell starvation medium. The mixture was mixed well, and then the compound solution was added to the corresponding wells of the cell plate at 20 μL/well. The cell plate was then put back to the CO2 incubator for incubation for another 1 h. At that time, the concentration of the compound ranged from 10 μM to 0.0256 nM, with the concentration of DMSO being 0.25%. • 4. After the incubation was completed, the cell supernatant was discarded, and a cell lysis buffer was added at 50 μL/well. The plate was then incubated with shaking at room temperature for 30 min. 5. The Phospho-ERK1/2 Eu Cryptate antibody and Phospho-ERK1/2 d2 antibody were diluted in a 20-fold gradient with the Detection buffer. • 6. 16 μL of the cell lysate supernatant from each well was transferred to a new 384-well white microplate, and then 2 μL of the Phospho-ERK1/2 Eu Cryptate antibody dilution and 2 μL of the Phospho-ERK1/2 d2 antibody dilution were added to each well. The mixture was incubated at room temperature for 4 h. • 7. After the incubation was completed, HTRF values were read using a multimode microplate reader, with an excitation wavelength of 320 nm and emission wavelengths of 615 nm and 665 nm.
The original data were converted to inhibition rates and then the IC50 values were obtained by curve fitting using a four-parameter method.

[4] = iv, injection (tail vein), dose 1 mg/kg
[5] = oral 2 mg/kg vs injection 1 mg/kg
[6] = oral administration, dose 2 mg/kg
[7] = iv, injection (tail vein), dose 2 mg/kg
[8] = oral administration, dose 10 mg/kg

| IC50 [1] [nM] | AUC(0-t) [2, 4] [µM·h] | clearance [2, 4] [mL/min/kg] | bioavailability [2, 5] [%] | AUC(0-t) [2, 6] [µM·h] | Cmax [2, 6] [nM] | IC50 [3] [nM] | AUC(0-t) [2, 7] [µM·h] | clearance [2, 7] [mL/min/kg] | bioavailability ([2]; oral 10 mg/kg vs injection 2 mg/kg) [%] | AUC(0-t) [2, 8] [µM·h] | Cmax [2, 8] [nM] | Structure (SMILES) |
| --- | --- | --- | --- | --- | --- | --- | --- | --- | --- | --- | --- | --- |
| 61.4 | 1.32 | 27 | 83.6 | 2.04 | 927 | 84.1 | – | – | – | – | – | CNc1nccc(Sc2nc(CO)c(N3CCC4(CC3)Cn3nccc3C4N)nc2C)c1Cl (stereo not shown) [Compound 2] |
| 22.1 | – | – | – | – | – | 21.2 | 2.53 | 27.7 | 69.5 | 8.6 | 3540 | Cc1nc(N2CCC3(CC2)Cn2nccc2C3N)c(CO)nc1Sc1ccnc(N)c1Cl (stereo not shown) [Compound 1] |
| 145 | 0.974 | 35.5 | 58.6 | 0.99 | 372 | 75.8 | – | – | – | – | – | Cc1nc(N2CCC3(CC2)Cn2nccc2C3N)c(CO)nc1Sc1cccnc1C(F)(F)F (stereo not shown) [Compound 4] |
| 120 | 0.638 | 68.3 | 89.8 | 0.817 | 463 | 57.1 | – | – | – | – | – | Cc1nc(N2CCC3(CC2)Cn2nccc2C3N)c(CO)nc1Sc1ccnc(N)c1F (stereo not shown) [Compound 6] |
